“Also recorded” adds a separate entry of the source.
Tests used:
[1] = biological target: T1, adenylosuccinate lyase (cardiac muscle) (Mus musculus, UniProt P54822); experiment: Assay of adenylosuccinate lyase, cardiac enzyme; type: biochemical, C57BL/6J mice
T1 construct: the hearts and gastrocnemius muscles were excised, weighed, and homogenized to a slurry; from tissue; host or cells: heart of six-week-old C57BL/6J mice; dialyzed 10,000×g supernatant
T1 sequence (P54822 2-484 limits assumed): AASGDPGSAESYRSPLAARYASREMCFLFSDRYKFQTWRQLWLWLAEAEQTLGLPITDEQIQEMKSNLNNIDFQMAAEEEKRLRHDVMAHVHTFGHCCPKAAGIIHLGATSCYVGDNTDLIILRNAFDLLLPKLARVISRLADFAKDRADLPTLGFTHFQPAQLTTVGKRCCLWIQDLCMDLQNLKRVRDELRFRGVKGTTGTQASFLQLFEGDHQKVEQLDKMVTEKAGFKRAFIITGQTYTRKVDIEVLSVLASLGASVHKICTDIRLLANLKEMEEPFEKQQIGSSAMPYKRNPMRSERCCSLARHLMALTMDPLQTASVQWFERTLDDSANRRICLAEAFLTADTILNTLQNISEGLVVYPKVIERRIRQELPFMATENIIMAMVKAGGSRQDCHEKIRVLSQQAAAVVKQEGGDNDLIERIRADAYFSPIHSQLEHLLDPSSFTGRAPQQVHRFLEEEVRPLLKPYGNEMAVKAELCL
Procedure: (§1) Preparation and Assay of Adenylosuccinate Lyase--Six-week-old C57BL/6J mice were killed, and the hearts and gastrocnemius muscles were excised, weighed, and homogenized to a slurry in 4 volumes of 50 mM Tris-HCl, pH 7.4 at 25° C. containing 1 mM EDTA and 1 mM β-mercaptoethanol in a TenBroeck glass homogenizer. The homogenate was centrifuged at 10,000×g for 15 min and the supernatant was dialyzed against 1,000 volumes of the extraction buffer for 2 h at 4° C. The lyase activity was partially stabilized by the addition of EDTA and β-mercaptoethanol, but some activity was lost even on storage at -70° C.
(§2) The assays were carried out at pH 7.4 were reaction mixtures that contained 50 mM Tris-HCl buffer, 1 mM EDTA, 1 mM β-mercaptoethanol, 20 μM adenylosuccinate, and the enzyme extract (protein concentration, 0.13-0.20 mg/ml). The decrease in absorbance at 280 nm was measured using a Gilford recording spectrophotometer. All assays were done at 25° C. and were linear with respect to time of incubation and with the amount of protein in extract added to the assay.
(§3) These are average values for experiments with 4 separate enzyme preparations. The experimental points in the double reciprocal plots were fitted to the best line by the method of least squares with all points being weighted equally.

[2] = biological target: T2, adenylosuccinate lyase (skeletal muscle) (Mus musculus, UniProt P54822); experiment: Assay of adenylosuccinate lyase, skeletal muscle enzyme; type: biochemical, C57BL/6J mice
T2 construct: the hearts and gastrocnemius muscles were excised, weighed, and homogenized to a slurry; from tissue; host or cells: gastrocnemius (skeletal) muscle of six-week-old C57BL/6J mice; dialyzed 10,000×g supernatant
T2 sequence (P54822 2-484 limits assumed): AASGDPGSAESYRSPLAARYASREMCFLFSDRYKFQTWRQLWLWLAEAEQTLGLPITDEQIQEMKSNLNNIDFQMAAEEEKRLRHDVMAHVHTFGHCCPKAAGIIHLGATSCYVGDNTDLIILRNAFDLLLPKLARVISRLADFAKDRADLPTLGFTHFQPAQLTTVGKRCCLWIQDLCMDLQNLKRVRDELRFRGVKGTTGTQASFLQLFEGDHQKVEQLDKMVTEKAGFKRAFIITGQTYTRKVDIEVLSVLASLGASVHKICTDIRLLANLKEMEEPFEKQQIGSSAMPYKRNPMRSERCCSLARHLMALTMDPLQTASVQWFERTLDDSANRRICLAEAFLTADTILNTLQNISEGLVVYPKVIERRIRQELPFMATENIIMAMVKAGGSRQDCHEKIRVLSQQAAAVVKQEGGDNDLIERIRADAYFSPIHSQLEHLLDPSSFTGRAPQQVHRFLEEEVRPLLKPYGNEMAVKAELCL
Procedure: as §1, §2, §3

cardiovascular system = conditions: prior art statement; cited from earlier work
[3] = substrate: O=C(O)C[C@H](Nc1ncnc2c1ncn2[C@@H]1O[C@H](COP(=O)(O)O)[C@@H](O)[C@H]1O)C(=O)O; experiment: Assay of adenylosuccinate lyase, cardiac enzyme; type: biochemical, C57BL/6J mice; conditions: other: cardiac muscle enzyme, pH 7.4, 25° C., 4 enzyme preparations
Procedure: as §1, §2, §3

[4] = substrate: O=C(O)C[C@H](Nc1ncnc2c1ncn2[C@@H]1O[C@H](COP(=O)(O)O)[C@@H](O)[C@H]1O)C(=O)O; experiment: Assay of adenylosuccinate lyase, skeletal muscle enzyme; type: biochemical, C57BL/6J mice; conditions: other: skeletal muscle enzyme, pH 7.4, 25° C., 4 enzyme preparations
Procedure: as §1, §2, §3

## NC(=O)c1ncn([C@@H]2O[C@H](COP(=O)(O)O)[C@@H](O)[C@H]2O)c1N [AICAR, 5-Amino-4-imidazolecarboxamide Ribotide]
[1]
  Ki: 4.5 ± 1.7 µM
[1]; cardiac muscle
  maximal AICAR concentration exceeding Ki of adenylosuccinate lyase: 180 fold
[2]
  Ki: 7.6 ± 3.2 µM
[2]; skeletal muscle
  maximal AICAR concentration exceeding Ki of adenylosuccinate lyase: 18 fold

## Nc1ncnc2c1ncn2[C@@H]1O[C@H](CO)[C@@H](O)[C@H]1O [adenosine]
Cardiovascular system
  hemodynamic effects: profound changes in the hemodynamic status; also recorded: deleterious hemodynamic effects

## O=c1[nH]cnc2nc[nH]c12 [hypoxanthine]
Cardiovascular system
  hemodynamic effects: deleterious hemodynamic effects

## OC[C@H]1O[C@@H](n2cnc3c(O)ncnc32)[C@H](O)[C@@H]1O [inosine]
Cardiovascular system
  hemodynamic effects: deleterious hemodynamic effects

B1: adenylosuccinate lyase (cardiac muscle) (Mus musculus) (protein)
chain: AASGDPGSAESYRSPLAARYASREMCFLFSDRYKFQTWRQLWLWLAEAEQTLGLPITDEQIQEMKSNLNNIDFQMAAEEEKRLRHDVMAHVHTFGHCCPKAAGIIHLGATSCYVGDNTDLIILRNAFDLLLPKLARVISRLADFAKDRADLPTLGFTHFQPAQLTTVGKRCCLWIQDLCMDLQNLKRVRDELRFRGVKGTTGTQASFLQLFEGDHQKVEQLDKMVTEKAGFKRAFIITGQTYTRKVDIEVLSVLASLGASVHKICTDIRLLANLKEMEEPFEKQQIGSSAMPYKRNPMRSERCCSLARHLMALTMDPLQTASVQWFERTLDDSANRRICLAEAFLTADTILNTLQNISEGLVVYPKVIERRIRQELPFMATENIIMAMVKAGGSRQDCHEKIRVLSQQAAAVVKQEGGDNDLIERIRADAYFSPIHSQLEHLLDPSSFTGRAPQQVHRFLEEEVRPLLKPYGNEMAVKAELCL
notes: the hearts and gastrocnemius muscles were excised, weighed, and homogenized to a slurry; from tissue; host or cells: heart of six-week-old C57BL/6J mice; dialyzed 10,000×g supernatant
[3]
  Km: 2.2 ± 0.3 µM

B2: adenylosuccinate lyase (skeletal muscle) (Mus musculus) (protein)
chain: AASGDPGSAESYRSPLAARYASREMCFLFSDRYKFQTWRQLWLWLAEAEQTLGLPITDEQIQEMKSNLNNIDFQMAAEEEKRLRHDVMAHVHTFGHCCPKAAGIIHLGATSCYVGDNTDLIILRNAFDLLLPKLARVISRLADFAKDRADLPTLGFTHFQPAQLTTVGKRCCLWIQDLCMDLQNLKRVRDELRFRGVKGTTGTQASFLQLFEGDHQKVEQLDKMVTEKAGFKRAFIITGQTYTRKVDIEVLSVLASLGASVHKICTDIRLLANLKEMEEPFEKQQIGSSAMPYKRNPMRSERCCSLARHLMALTMDPLQTASVQWFERTLDDSANRRICLAEAFLTADTILNTLQNISEGLVVYPKVIERRIRQELPFMATENIIMAMVKAGGSRQDCHEKIRVLSQQAAAVVKQEGGDNDLIERIRADAYFSPIHSQLEHLLDPSSFTGRAPQQVHRFLEEEVRPLLKPYGNEMAVKAELCL
notes: the hearts and gastrocnemius muscles were excised, weighed, and homogenized to a slurry; from tissue; host or cells: gastrocnemius (skeletal) muscle of six-week-old C57BL/6J mice; dialyzed 10,000×g supernatant
[4]
  Km: 4.5 ± 1.5 µM
